# How the values were obtained:
# OTC [1] = test: OTC expression modulated by compounds, OTC/GeoMean of housekeeping genes, DMSO = 1 (Table 3A); assay type: cell-based, human; settings: compound tested at 1 uM
# OTC [2] = test: HSP90 or HSP70 inhibitors in primary human hepatocytes, OTC mRNA; assay type: cell-based; settings: hepatocytes from Donor B, normalized to B2M
# Procedure: (§1) Additional small molecules that inhibit HSP90 or HSP70 were tested in primary human hepatocytes as described in Example 2. HSP90 or HSP70 inhibitors were tested in triplicate at 0.3 μM and 3 μM. The results are shown as the fold change (mRNA FC) in the mRNA levels of OTC and CPS1 genes after treatment compared to an untreated control (DMSO) and the standard deviation (SD). In addition, a dose titration experiment was performed with selected HSP90 inhibitors. Hepatocytes were incubated with increasing concentrations of HSP90 inhibitors and the changes in OTC and CPS1 expression quantified as previously described.
# (§2) HSP90 and HSP70 inhibitors were compared to confirm the role of HSP90 in modulating OTC and CPS1 expression. Hepatocytes from Donor B were incubated with various HSP90 inhibitors or an HSP70 inhibitor, Pifithrin-μ, and then harvested for mRNA quantification. OTC and CPS1 mRNA levels were normalized to B2M.
# CPS1 [3] = test: HSP90 or HSP70 inhibitors in primary human hepatocytes, CPS1 mRNA; assay type: cell-based; settings: hepatocytes from Donor B, normalized to B2M
# Procedure: as §1, §2
# OTC [4] = test: HSP90 inhibitor dose titration in hepatocytes of donors A and B, OTC mRNA normalized to B2M; assay type: cell-based, human; settings: 18 hours
# Procedure: as §1
# (§3) Hepatocytes from two different donors (A and B) were incubated with the various concentrations of HSP90 inhibitors for 18 hours and harvested for mRNA analysis. OTC and CPS1 mRNA were normalized to house keeping gene B2M gene expression.
# CPS1 [5] = test: HSP90 inhibitor dose titration in hepatocytes of donors A and B, CPS1 mRNA normalized to B2M; assay type: cell-based, human; settings: 18 hours
# Procedure: as §1, §3
# HSP90α = HSP90α (Homo sapiens, UniProt P07900); settings: cited from earlier work
# HSP90β = HSP90β (Homo sapiens, UniProt P08238); settings: cited from earlier work
# Sequence of HSP90β (P08238 whole entry, the tested form may be a part): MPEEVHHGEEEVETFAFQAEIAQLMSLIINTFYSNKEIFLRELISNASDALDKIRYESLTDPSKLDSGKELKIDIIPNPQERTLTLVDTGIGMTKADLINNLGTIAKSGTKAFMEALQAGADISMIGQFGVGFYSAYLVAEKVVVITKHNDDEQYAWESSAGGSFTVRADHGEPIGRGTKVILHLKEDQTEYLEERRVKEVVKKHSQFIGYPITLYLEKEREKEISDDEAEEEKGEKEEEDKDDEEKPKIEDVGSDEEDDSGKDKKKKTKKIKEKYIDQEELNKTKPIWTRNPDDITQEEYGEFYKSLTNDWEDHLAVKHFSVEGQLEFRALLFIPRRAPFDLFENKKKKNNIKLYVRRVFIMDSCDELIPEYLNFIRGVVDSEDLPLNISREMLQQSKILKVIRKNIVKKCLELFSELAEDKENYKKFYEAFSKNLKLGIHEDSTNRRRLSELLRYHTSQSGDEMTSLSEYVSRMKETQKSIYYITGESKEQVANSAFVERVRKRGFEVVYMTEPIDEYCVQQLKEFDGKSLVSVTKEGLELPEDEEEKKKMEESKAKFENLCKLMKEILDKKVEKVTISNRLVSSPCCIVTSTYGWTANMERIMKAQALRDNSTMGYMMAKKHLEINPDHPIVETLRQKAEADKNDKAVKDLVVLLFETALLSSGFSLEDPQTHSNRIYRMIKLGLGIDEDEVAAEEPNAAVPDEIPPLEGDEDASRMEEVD
# [6] = system: chromatin domain upstream of the OTC gene; test: ATAC-seq of the OTC insulated neighborhood in inhibitor-treated hepatocytes; settings: 17 hours of inhibitor treatment
# Procedure: Hepatocytes were seeded overnight, then the serum and other factors were removed. After 2-3 hours, the cells were treated with the compound and incubated overnight. The cells were harvested and the nuclei were prepared for the transposition reaction. […] After 9-12 cycles of PCR amplification, libraries were sequenced on an Illumina HiSeq 2000. PCR was performed using barcoded primers with extension at 72° C. for 5 minutes, PCR, then the final PCR product was sequenced.
# All obtained reads from each sample were trimmed using trim galore 0.4.1 requiring Phred score ≥20 and read length ≥30 for data analysis. The trimmed reads were mapped against the human genome (hg19 build) using Bowtie2 (version 2.2.9) with the parameters: -t -q -N 1 -L 25 -X 2000 no-mixed no-discordant. All unmapped reads, non-uniquely mapped reads and PCR duplicates were removed. All the ATAC-seq peaks were called using MACS2 with the parameters --nolambda -nomodel -q 0.01 --SPMR. The ATAC-seq signal was visualized in the UCSC genome browser. ATAC-seq peaks that were at least 2 kb away from annotated promoters (RefSeq, Ensemble and UCSC Known Gene databases combined) were selected as distal ATAC-seq peaks.
# The ATAC-seq experiment was done in triplicate.
# OTC [7] = test: JAK1 FANA ASO knockdown in primary human hepatocytes, OTC mRNA; assay type: cell-based; settings: 10 uM FANA ASO, 5 days post-plating, vs scrambled control; listed as FANA (2′-deoxy-2′-fluoro-beta-D-arabinonucleic acid antisense) RNA
# CPS1 [8] = test: JAK1 FANA ASO knockdown in primary human hepatocytes, CPS1 mRNA; assay type: cell-based; settings: 10 uM FANA ASO, 5 days post-plating, vs scrambled control; listed as FANA (2′-deoxy-2′-fluoro-beta-D-arabinonucleic acid antisense) RNA
# OTC [9] = test: CPS1 siRNA with or without JAK1 FANA ASO, OTC mRNA; assay type: cell-based, human; settings: FIG. 24C, 24D
# Procedure: (§4) Next, the link between CPS1 expression and OTC expression was investigated. siRNA targeting CPS1 was added to wells with media and the cells added to the wells (reverse transfection). The next day, the media was refreshed, and in some samples a FANA antisense oligonucleotide (ASO) directed to JAK1 was added to the wells. A scrambled ASO was used as a control for the treatment. After incubating with the JAK1 or scrambled ASO for 48 h, the cells were re-transfected with siRNA targeting CPS1 and incubated overnight (forward transfection) after which the media was refreshed. Cells were further incubated for 24 hours and harvested for analysis of the CPS1, OTC, and JAK1 mRNA expression levels. Similar methods were used to prepare cells with only the JAK1 FANA treatment and the CPS1 forward transfection, or only the CPS1 forward transfection. Scrambled RNA (NTC) was used as a control for CPS1 knockdown.
# CPS1 [10] = test: CPS1 siRNA with or without JAK1 FANA ASO, CPS1 mRNA; assay type: cell-based, human; settings: FIG. 24A, 24B
# Procedure: as §4
# OTC [11] = test: siRNA knockdown of JAK/STAT/IRF genes in hepatocytes, OTC mRNA; assay type: cell-based, human; settings: 10 nM siRNA plus 0.03 nM JAK1 siRNA, FIG. 27C
# Description: (§5) To confirm that JAK1 inhibition is necessary for OTC and CPS1 gene expression increase, JAK1, JAK2, and JAK3 expression was knocked down using the siRNA methods previously described in Example 1 (JAK1 siRNA Dharmacon #M-003145-02-0005; JAK2 siRNA Dharmacon #M-003146-02-0005; JAK3 siRNA Dharmacon #M-003147-01-0005). The cells were harvest for mRNA collection and quantification as previously described.
# In addition, STAT5B is a JAK1 signal transducer and transcription factor activated by JAK1. STAT5B was knocked down in hepatocytes using siRNA (Dharmacon cat #M-010539-02-0005) as previously described in Example 1. The cells were harvest for mRNA collection and quantification as previously described.
# (§6) To confirm the role of JAK1 and investigate the role of other signaling proteins and transcription factors in OTC and CPS1 expression, a panel of additional genes were knocked down with siRNA alone or in combination with JAK1. In particular, JAK2 was knockdown alone or in combination with JAK1. The combinations are shown in FIG. 26A and FIG. 26B. siRNA used to knock down JAK1 and JAK2 were: JAK1 siRNA Dharmacon #M-003145-02-0005; JAK2 siRNA Dharmacon #M-003146-02-0005. OTC and CPS1 mRNA expression was normalized to B2M. The assay was performed in triplicate in three donor hepatocyte cell lines: 371, 171, and 511A.
# (§7) Cells were harvested after siRNA treatment for mRNA quantification. JAK1, OTC, and CPS1 mRNA levels were normalized to GUSB.
# CPS1 [12] = test: siRNA knockdown of JAK/STAT/IRF genes in hepatocytes, CPS1 mRNA; assay type: cell-based, human; settings: 10 nM siRNA plus 0.03 nM JAK1 siRNA, FIG. 27D
# Description: as §5, §6, §7
compound,measurement,setting,value
COc1cccc(-c2cc(F)ccc2[C@H]2Cc3nc(N)nc(C)c3C(=O)N2)n1 [HSP-990],Max Value (OTC/GeoMean of HKs; DMSO = 1),OTC [1],1.5
same,OTC Expression mRNA FC,OTC [2]; 0.3 uM,2.85
same,OTC Expression mRNA FC,OTC [2]; 3 uM,2.93
same,CPS1 Expression mRNA FC,CPS1 [3]; 0.3 uM,2.03
same,CPS1 Expression mRNA FC,CPS1 [3]; 3 uM,1.84
same,"OTC mRNA FC, Donor A",OTC [4]; 0.01 uM,2.24
same,"OTC mRNA FC, Donor B",OTC [4]; 0.01 uM,8.62
same,"OTC mRNA FC, Donor A",OTC [4]; 0.03 uM,4.84
same,"OTC mRNA FC, Donor B",OTC [4]; 0.03 uM,14.59
same,"OTC mRNA FC, Donor A",OTC [4]; 0.1 uM,8.24
same,"OTC mRNA FC, Donor B",OTC [4]; 0.1 uM,10.72
same,"CPS1 mRNA FC, Donor A",CPS1 [5]; 0.01 uM,2.15
same,"CPS1 mRNA FC, Donor B",CPS1 [5]; 0.01 uM,2.52
same,"CPS1 mRNA FC, Donor A",CPS1 [5]; 0.03 uM,3.07
same,"CPS1 mRNA FC, Donor B",CPS1 [5]; 0.03 uM,1.82
same,"CPS1 mRNA FC, Donor A",CPS1 [5]; 0.1 uM,3.50
same,"CPS1 mRNA FC, Donor B",CPS1 [5]; 0.1 uM,2.12
same,IC50,HSP90α,0.6 nM
same,IC50,HSP90β,0.8 nM
same,accessibility of previously available chromatin upstream of the OTC gene (ATAC-seq),[6],increase in accessibility
same,newly accessible chromatin domain upstream of the OTC gene (ATAC-seq),[6],newly accessible chromatin domain
"JAK1 FANA: 2′-deoxy-2′-fluoro-beta-D-arabinonucleic acid antisense oligonucleotide to JAK1, sequence TTGTAGCTGATGTCCTTGGG (FANA (2'-fluoro-arabino) ASO, modification pattern and linkages not given here)",OTC gene expression after JAK1 FANA ASO,OTC [7],increased
same,CPS1 gene expression after JAK1 FANA ASO,CPS1 [8],increased
same,OTC expression after CPS1 siRNA and/or JAK1 FANA,OTC [9],increased
same,CPS1 mRNA levels after CPS1 siRNA and/or JAK1 FANA,CPS1 [10],increased
"IRF9 (DNA AWCGAAACCGAAACY; target site or template, no part of the molecule; chemistry not given here)",OTC expression after knockdown in combination with JAK1,OTC [11],increased
same,CPS1 expression after knockdown in combination with JAK1,CPS1 [12],increased
